Experimental data from PubChem BioAssay (NCI).
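GI50 marks 50% less growth. TGI denotes the concentration required for complete inhibition of growth.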

Key:
Experiment in all cases: NCI-60 cell line screen, 384-well format
NCI-H226 lung = test system: NCI-H226 lung
SF-295 CNS = test system: SF-295 CNS
U251 glioblastoma = test system: U251 glioblastoma
DU-145 prostate = test system: DU-145 prostate
CAKI-1 renal = test system: CAKI-1 renal
BT-549 breast = test system: BT-549 breast
RXF 393 renal = test system: RXF 393 renal
PC-3 prostate = test system: PC-3 prostate
MALME-3M melanoma = test system: MALME-3M melanoma
OVCAR-4 ovarian = test system: OVCAR-4 ovarian
HCC-2998 colon = test system: HCC-2998 colon
SNB-75 CNS = test system: SNB-75 CNS
MDA-MB-435 melanoma = test system: MDA-MB-435 melanoma
SK-MEL-28 melanoma = test system: SK-MEL-28 melanoma
SN12C renal = test system: SN12C renal
RPMI-8226 leukemia = test system: RPMI-8226 leukemia
HT29 colon = test system: HT29 colon
HOP-92 NSCLC = test system: HOP-92 NSCLC
OVCAR-5 ovarian = test system: OVCAR-5 ovarian
MDA-MB-231 breast = test system: MDA-MB-231 breast
MDA-MB-468 breast = test system: MDA-MB-468 breast
UO-31 renal = test system: UO-31 renal
NCI-H522 lung = test system: NCI-H522 lung
KM12 colon = test system: KM12 colon
NCI/ADR-RES ovarian = test system: NCI/ADR-RES ovarian
NCI-H460 NSCLC = test system: NCI-H460 NSCLC
SK-OV-3 ovarian = test system: SK-OV-3 ovarian
OVCAR-3 ovarian = test system: OVCAR-3 ovarian
A549 NSCLC = test system: A549 NSCLC
EKVX NSCLC = test system: EKVX NSCLC
COLO 205 colon = test system: COLO 205 colon
786-0 renal = test system: 786-0 renal
M14 melanoma = test system: M14 melanoma
NCI-H322M lung = test system: NCI-H322M lung
K-562 leukemia = test system: K-562 leukemia
SNB-19 CNS = test system: SNB-19 CNS
MCF7 breast = test system: MCF7 breast
ACHN renal = test system: ACHN renal
TK-10 renal = test system: TK-10 renal
HCT-116 colon = test system: HCT-116 colon
SF-268 CNS = test system: SF-268 CNS
HS 578T breast = test system: HS 578T breast
SK-MEL-5 melanoma = test system: SK-MEL-5 melanoma
NCI-H23 lung = test system: NCI-H23 lung
A498 renal = test system: A498 renal
HOP-62 NSCLC = test system: HOP-62 NSCLC
SW-620 colon = test system: SW-620 colon
SF-539 CNS = test system: SF-539 CNS
MOLT-4 leukemia = test system: MOLT-4 leukemia
HCT-15 colon = test system: HCT-15 colon
UACC-62 melanoma = test system: UACC-62 melanoma
IGROV1 ovarian = test system: IGROV1 ovarian
HL-60(TB) leukemia = test system: HL-60(TB) leukemia
LOX IMVI melanoma = test system: LOX IMVI melanoma
OVCAR-8 ovarian = test system: OVCAR-8 ovarian
T-47D breast = test system: T-47D breast
CCRF-CEM leukemia = test system: CCRF-CEM leukemia

## Cn1ccc(S(=O)(=O)N2CCC[C@H](Nc3nccc(-c4c(-c5cccc(O)c5)nc5occn45)n3)C2)n1
NCI-H226 lung
  GI50: 11.2 µM
  TGI: 37.8 µM
SF-295 CNS
  GI50: 20.2 µM
  TGI: 43.5 µM
U251 glioblastoma
  GI50: 12.2 µM
  TGI: 26.5 µM
DU-145 prostate
  GI50: 14.4 µM
  TGI: 33.8 µM
CAKI-1 renal
  GI50: 4.38 µM
  TGI: 19.3 µM
BT-549 breast
  GI50: 7.47 µM
  TGI: 21.8 µM
RXF 393 renal
  GI50: 5.61 µM
  TGI: 19.2 µM
PC-3 prostate
  GI50: 8.79 µM
  TGI: 34 µM
MALME-3M melanoma
  GI50: < 0.01 µM
OVCAR-4 ovarian
  GI50: 20.2 µM
  TGI: 46 µM
HCC-2998 colon
  GI50: 4.05 µM
  TGI: 11.2 µM
SNB-75 CNS
  GI50: 4.98 µM
  TGI: 31.7 µM
MDA-MB-435 melanoma
  GI50: 0.0187 µM
  TGI: 21.5 µM
SK-MEL-28 melanoma
  GI50: < 0.01 µM
  TGI: 0.602 µM
SN12C renal
  GI50: 8.01 µM
  TGI: 30.7 µM
RPMI-8226 leukemia
  GI50: 10.5 µM
  TGI: 22.4 µM
HT29 colon
  GI50: 0.325 µM
  TGI: 13.7 µM
HOP-92 NSCLC
  GI50: 5.55 µM
  TGI: 26.4 µM
OVCAR-5 ovarian
  GI50: 11.9 µM
  TGI: 38.4 µM
MDA-MB-231 breast
  GI50: 2.04 µM
  TGI: 23.6 µM
MDA-MB-468 breast
  GI50: 5.59 µM
  TGI: 18.5 µM
UO-31 renal
  GI50: 1.64 µM
  TGI: 22 µM
NCI-H522 lung
  GI50: 15.1 µM
  TGI: 29.5 µM
KM12 colon
  GI50: 15.1 µM
  TGI: 35.5 µM
NCI/ADR-RES ovarian
  GI50: > 100 µM
  TGI: > 100 µM
NCI-H460 NSCLC
  GI50: 12.1 µM
  TGI: 26.3 µM
SK-OV-3 ovarian
  GI50: 6.83 µM
  TGI: 23.6 µM
OVCAR-3 ovarian
  GI50: 6.66 µM
  TGI: 19.2 µM
A549 NSCLC
  GI50: 11.9 µM
  TGI: 25.2 µM
EKVX NSCLC
  GI50: 4.71 µM
  TGI: 17.5 µM
COLO 205 colon
  GI50: < 0.01 µM
  TGI: 20.2 µM
786-0 renal
  GI50: 7.2 µM
  TGI: 32.5 µM
M14 melanoma
  GI50: < 0.01 µM
  TGI: 1.15 µM
NCI-H322M lung
  GI50: 10.1 µM
  TGI: 35.9 µM
K-562 leukemia
  GI50: 7.07 µM
  TGI: 41.4 µM
SNB-19 CNS
  GI50: 27.1 µM
  TGI: > 100 µM
MCF7 breast
  GI50: 6.67 µM
  TGI: 19.9 µM
ACHN renal
  GI50: 7.99 µM
  TGI: 35.8 µM
TK-10 renal
  GI50: 11.3 µM
  TGI: 48.2 µM
HCT-116 colon
  GI50: 3.59 µM
  TGI: 16.4 µM
SF-268 CNS
  GI50: 3.65 µM
  TGI: 13.8 µM
HS 578T breast
  GI50: 3.33 µM
  TGI: 15.8 µM
SK-MEL-5 melanoma
  GI50: 0.0669 µM
  TGI: 14 µM
NCI-H23 lung
  GI50: 3.95 µM
  TGI: 17.8 µM
A498 renal
  GI50: 3.82 µM
  TGI: 17.2 µM
HOP-62 NSCLC
  GI50: 10.4 µM
  TGI: 30.7 µM
SW-620 colon
  GI50: 11.6 µM
  TGI: 25.5 µM
SF-539 CNS
  GI50: 12.6 µM
  TGI: 25.5 µM
MOLT-4 leukemia
  GI50: 5.62 µM
  TGI: 17.1 µM
HCT-15 colon
  GI50: 14.2 µM
  TGI: 35.7 µM
UACC-62 melanoma
  GI50: < 0.01 µM
IGROV1 ovarian
  GI50: 4.14 µM
  TGI: 17 µM
HL-60(TB) leukemia
  GI50: 8.06 µM
  TGI: 20.1 µM
LOX IMVI melanoma
  GI50: 1.24 µM
  TGI: 2.83 µM
OVCAR-8 ovarian
  GI50: 13.3 µM
  TGI: 36.9 µM
T-47D breast
  GI50: 11.1 µM
  TGI: 23.4 µM
CCRF-CEM leukemia
  GI50: 2.32 µM
  TGI: 4.7 µM

## CCNCCS(=O)(=O)NC[C@@]1(c2ccccc2)SC(NC(=O)C(C)(C)C)=NN1C(=O)C(C)(C)C
NCI-H226 lung
  GI50: 74.6 µM
  TGI: > 100 µM
SF-295 CNS
  GI50: 0.0177 µM
  TGI: > 100 µM
U251 glioblastoma
  GI50: < 0.01 µM
  TGI: > 100 µM
DU-145 prostate
  GI50: < 0.01 µM
  TGI: > 100 µM
CAKI-1 renal
  GI50: 0.0427 µM
  TGI: > 100 µM
BT-549 breast
  GI50: < 0.01 µM
  TGI: 58.9 µM
PC-3 prostate
  GI50: < 0.01 µM
  TGI: > 100 µM
OVCAR-4 ovarian
  GI50: 29.5 µM
  TGI: > 100 µM
HCC-2998 colon
  GI50: < 0.01 µM
  TGI: 24.6 µM
SNB-75 CNS
  GI50: < 0.01 µM
  TGI: 48.7 µM
RPMI-8226 leukemia
  GI50: < 0.01 µM
  TGI: < 0.01 µM
HT29 colon
  GI50: < 0.01 µM
  TGI: < 0.01 µM
HOP-92 NSCLC
  GI50: < 0.01 µM
  TGI: 62 µM
OVCAR-5 ovarian
  GI50: < 0.01 µM
  TGI: > 100 µM
MDA-MB-468 breast
  GI50: < 0.01 µM
  TGI: < 0.01 µM
UO-31 renal
  GI50: 63.3 µM
  TGI: > 100 µM
KM12 colon
  GI50: < 0.01 µM
  TGI: > 100 µM
NCI/ADR-RES ovarian
  GI50: 3.42 µM
  TGI: > 100 µM
NCI-H460 NSCLC
  GI50: < 0.01 µM
  TGI: < 0.01 µM
OVCAR-3 ovarian
  GI50: < 0.01 µM
  TGI: < 0.01 µM
A549 NSCLC
  GI50: < 0.01 µM
  TGI: > 100 µM
EKVX NSCLC
  GI50: < 0.01 µM
  TGI: > 100 µM
COLO 205 colon
  GI50: < 0.01 µM
  TGI: < 0.01 µM
786-0 renal
  GI50: < 0.01 µM
  TGI: 28.6 µM
M14 melanoma
  GI50: < 0.01 µM
  TGI: < 0.01 µM
MCF7 breast
  GI50: < 0.01 µM
  TGI: 42.7 µM
ACHN renal
  GI50: 52.6 µM
  TGI: > 100 µM
TK-10 renal
  GI50: 26.4 µM
  TGI: > 100 µM
HCT-116 colon
  GI50: < 0.01 µM
  TGI: > 100 µM
SF-268 CNS
  GI50: < 0.01 µM
  TGI: < 0.01 µM
A498 renal
  GI50: < 0.01 µM
  TGI: > 100 µM
HOP-62 NSCLC
  GI50: < 0.01 µM
  TGI: 75.6 µM
SW-620 colon
  GI50: < 0.01 µM
  TGI: 62.6 µM
MOLT-4 leukemia
  GI50: < 0.01 µM
  TGI: < 0.01 µM
HCT-15 colon
  GI50: 0.108 µM
  TGI: > 100 µM
UACC-62 melanoma
  GI50: < 0.01 µM
  TGI: > 100 µM
IGROV1 ovarian
  GI50: < 0.01 µM
  TGI: > 100 µM
HL-60(TB) leukemia
  GI50: < 0.01 µM
  TGI: < 0.01 µM
LOX IMVI melanoma
  GI50: < 0.01 µM
  TGI: 22.4 µM
OVCAR-8 ovarian
  GI50: < 0.01 µM
  TGI: > 100 µM
CCRF-CEM leukemia
  GI50: < 0.01 µM
  TGI: < 0.01 µM
